From patent EP1200099B1, “SYNERGISTIC COMPOSITION COMPRISING DAUNORUBICIN DERIVATIVES AND ANTI[…]” (Pharmacia Italia S.p.A., priority 1999, dated 2001)

Test system: disseminated L1210 murine leukemia
Assay: Antileukemic activity on disseminated L1210 murine leukemia (in vivo survival)
Parameters: species or system mouse CD2F1
Conditions: for toxicity (in words): single agents: gemcitabine 15 and 60 mg/kg ip day 1, PNU 159548 1 and 1.5 mg/kg iv day 1
Source text: The superadditive actions of the combination preparation of the present invention may be shown for instance by in vivo tests for the antileukemic activity on disseminated L1210 murine leukemia. The combination of Ia with gemcitabine (Table 1) or 5-Fluorouracil tested at the different doses and schedules, produces favorable ILS% values (Increase in life span: [(median survival time of treated mice/median survival time of controls)x 100]-100), indicating a synergistic effect.
By combining gemcitabine and PNU 159548 at the same doses and with the same schedule, an increase of activity with ILS% values of 117 and 204 were observed, indicating a synergistic effect as shown by the combination index (CI) of […], respectively.
For these experiments Ia was solubilized in [Cremophor® /EtOH = 6.5:3.5]/[normal saline]=20/80 v/v, while standard pharmaceutical preparation were used for the antimetabolite compounds.

[1] = gemcitabine alone, ip day +1, 15 mg/kg/day
[2] = gemcitabine alone, ip day +1, 60 mg/kg/day
[3] = PNU 159548 alone, iv day +1, 1 mg/kg/day
[4] = PNU 159548 alone, iv day +1, 1.5 mg/kg/day

| SMILES | ILS% [1] [%] | LTS: long-term survivors (>60 days) at the end of the experiments [1] | TOX: Number of toxic deaths/number of mice [1] | ILS% [2] [%] | LTS: long-term survivors (>60 days) at the end of the experiments [2] | TOX: Number of toxic deaths/number of mice [2] | toxicity (in words) | LTS: long-term survivors (>60 days) at the end of the experiments [3] | TOX: Number of toxic deaths/number of mice [3] | ILS% (PNU 159548 alone, iv day +1, 1 mg/kg/day, L1210 cells 10^5/mouse IV on Day 0) [%] | ILS% [4] [%] | LTS: long-term survivors (>60 days) at the end of the experiments [4] | TOX: Number of toxic deaths/number of mice [4] |
| --- | --- | --- | --- | --- | --- | --- | --- | --- | --- | --- | --- | --- | --- |
| Nc1ccn([C@@H]2O[C@H](CO)[C@@H](O)C2(F)F)c(=O)n1 [Gemcitabine, gemcitabine] | 50 | 0/10 | 0/10 | 83 | 0/20 | 0/20 | without toxicity |  |  |  |  |  |  |
| CC(=O)[C@]1(O)Cc2c(O)c3c(c(O)c2[C@@H](O[C@H]2C[C@H](N4CC4)[C@H](OS(C)(=O)=O)[C@H](C)O2)C1)C(=O)c1ccccc1C3=O [PNU 159548, 4-demethoxy-3'-deamino-3'-aziridinyl-4'-methansulfonyl daunorubicin] |  |  |  |  |  |  | without toxicity | 0/10 | 0/10 | 33 | 67 | 0/20 | 0/20 |
